Reference: patent US20250340551A1, “SMALL MOLECULE MODULATORS OF STAT6” (Gilead Sciences, Inc., priority 2024, published 2025)

Key:
[1] = test system: Eotaxin-3 (CCL26) release in human whole blood stimulated with IL-4; assay: Human whole blood eotaxin-3 assay (IL-4 stimulated, Eotaxin-3 release); type: cell-based; conditions: Homo sapiens; for Emax: 48 h; for EC50: Hec50, 48 h
Method: This was a human whole blood assay using recombinant human Interleukin 4 to stimulate the blood and measuring the ability of the test compounds to inhibit eotaxin-3 release. The biological activities of the test compounds have been tested in human whole blood stimulated with IL-4 measuring Eotaxin-3 release. The test compounds were added to 384 well clear flat-bottom plate in a 4-fold serial dilution in triplicates using a liquid handler. Human whole blood stabilized in lithium-heparin tubes was added in a volume of 65 μL per well, resulting in a final DMSO concentration of 0.5%. The plate is incubated for 2 h at 37° C. under 5% CO2/95% air. Subsequently, 5 μL of recombinant human IL-4 (R&D Systems, cat #204-ILB) was added to the wells to a final concentration of 400 pM. The plate was incubated for 48 h at 37° C. under 5% CO2/95% air. The plate was spun down for 10 minutes at 500×g and 20 μL supernatant was harvested and transferred to a 384 well v-bottom plate using a liquid handler and stored at −20° C. until further analysis. 10 μL supernatant was used to measure the level of Eotaxin-3 (CCL26) using Human Eotaxin-3 MSD kit from Mesocsale (Cat #K251UEK-4). The assay was performed according to the manufacture instructions.
The data from the human whole blood eotaxin-3 assay is shown below for Examples 1u2, 1x1, 1af26, and 1af36 (where the effect in % is plotted against the test concentration in M on a log-scale).

[2] = target: human STAT6 (Homo sapiens (Human), UniProt P42226); assay: Surface plasmon resonance assay (Biacore 8K, binding to immobilized STAT6); conditions: human STAT6 aa122-658, N-terminal His-tag, CM5 chip, 25° C.; geometric mean; read-out: STAT6 SPR Kd
Sequence of human STAT6 (P42226 122-658): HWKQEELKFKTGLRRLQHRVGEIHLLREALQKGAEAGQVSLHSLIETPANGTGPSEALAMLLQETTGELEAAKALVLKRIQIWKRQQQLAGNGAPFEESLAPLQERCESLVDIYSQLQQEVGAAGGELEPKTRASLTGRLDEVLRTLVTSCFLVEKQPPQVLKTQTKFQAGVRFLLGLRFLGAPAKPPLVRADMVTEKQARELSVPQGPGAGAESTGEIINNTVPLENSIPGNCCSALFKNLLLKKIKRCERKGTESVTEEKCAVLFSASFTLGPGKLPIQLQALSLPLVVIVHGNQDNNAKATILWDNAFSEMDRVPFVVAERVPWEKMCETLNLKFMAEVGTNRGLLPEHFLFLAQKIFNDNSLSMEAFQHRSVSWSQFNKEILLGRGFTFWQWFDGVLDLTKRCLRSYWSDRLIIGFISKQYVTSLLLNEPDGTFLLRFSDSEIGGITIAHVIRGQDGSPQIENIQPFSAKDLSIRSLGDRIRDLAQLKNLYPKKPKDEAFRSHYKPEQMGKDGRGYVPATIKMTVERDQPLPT
Method in brief: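 Run at 25° C with His-tagged STAT6 aa122-658 (insect-cell expressed) amine-coupled to a CM5 chip, reference-subtracted, in PBS-P+ with 2% DMSO. Multi-cycle kinetics: 60 sec. contact, up to 300 sec. dissociation. Affinity fitted from late report-point binding isotherms, with Rmax both free and fixed to theoretical 1:1.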

| EC50 [1] | Structure (SMILES) | other results |
| --- | --- | --- |
| 0.167 µM | [2H]C([2H])([2H])N(C(=O)c1ccc([C@@H]2CCN(Cc3cc4c(-c5ccc(N)cn5)ccnc4n3C)[C@H](C)C2)cc1)C([2H])([2H])[2H] [Example 1z9, 4-((2R,4R)-1-((4-(5-aminopyridin-2-yl)-1-methyl-1H-pyrrolo[2,3-b]pyridin-2-yl)methyl)-2-methylpiperidin-4-yl)-N,N-bis(methyl-d3)benzamide] | – |
| 0.0216 µM | Cc1cc(C(=O)N(C)C)cc(F)c1C1=CCN(C(C)c2cc3c(-c4ccc(N)nc4)ccnc3n2C)CC1 (stereo not shown) [Example 1z28, 4-(1-(1-(4-(6-aminopyridin-3-yl)-1-methyl-1H-pyrrolo[2,3-b]pyridin-2-yl)ethyl)-1,2,3,6-tetrahydropyridin-4-yl)-3-fluoro-N,N,5-trimethylbenzamide] | – |
| 17.9 µM | [2H]C([2H])([2H])N(C(=O)c1ccc(C2=CCN([C@@H](C)c3cc4c(-c5ncc(N)cc5C(F)(F)F)ccnc4n3C)CC2)cc1)C([2H])([2H])[2H] [Example 1af57, (S)-4-(1-(1-(4-(5-Amino-3-(trifluoromethyl)pyridin-2-yl)-1-methyl-1H-pyrrolo[2,3-b]pyridin-2-yl)ethyl)-1,2,3,6-tetrahydropyridin-4-yl)-N,N-bis(methyl-d3)benzamide] | – |
| 0.368 µM | CN(C)C(=O)c1cc(F)c(C2=CCN(Cc3cc4c(-c5ccc(N)cn5)ccnc4n3C)CC2)c(F)c1 [Example 1z17, 4-(1-((4-(5-aminopyridin-2-yl)-1-methyl-1H-pyrrolo[2,3-b]pyridin-2-yl)methyl)-1,2,3,6-tetrahydropyridin-4-yl)-3,5-difluoro-N,N-dimethylbenzamide] | – |
| 0.132 µM | [2H]C([2H])([2H])N(C(=O)c1cc(C)c(C2=CCN(Cc3cc4c(-c5ccc(NC)nn5)ccnc4n3C)CC2)c(F)c1)C([2H])([2H])[2H] [Example 1z34, 3-fluoro-5-methyl-N,N-bis(methyl-d3)-4-(1-((1-methyl-4-(6-(methylamino)pyridazin-3-yl)-1H-pyrrolo[2,3-b]pyridin-2-yl)methyl)-1,2,3,6-tetrahydropyridin-4-yl)benzamide] | – |
| 0.0533 µM | [2H]C([2H])([2H])N(C(=O)c1cc(C)c(C2=CCN(Cc3cc4c(-c5ccc(N)nn5)ccnc4n3C)CC2)c(F)c1)C([2H])([2H])[2H] [Example 1z20, 4-(1-((4-(6-aminopyridazin-3-yl)-1-methyl-1H-pyrrolo[2,3-b]pyridin-2-yl)methyl)-1,2,3,6-tetrahydropyridin-4-yl)-3-fluoro-5-methyl-N,N-bis(methyl-d3)benzamide] | – |
| 0.534 µM | [2H]C([2H])([2H])N(C(=O)c1ccc(C2=CCN([C@@H](C)c3cc4c(-c5ccc(N)c(F)n5)ccnc4n3C)CC2)cc1)C([2H])([2H])[2H] [Example 1af54, (S)-4-(1-(1-(4-(5-Amino-6-fluoropyridin-2-yl)-1-methyl-1H-pyrrolo[2,3-b]pyridin-2-yl)ethyl)-1,2,3,6-tetrahydropyridin-4-yl)-N,N-bis(methyl-d3)benzamide] | – |
| 0.851 µM | CN(C)C(=O)c1ccc(C2=CCN(Cc3cc4c(-c5ccc(N)nn5)ccnc4n3C)CC2)nc1 [Example 1af78, 1′-((4-(6-Aminopyridazin-3-yl)-1-methyl-1H-pyrrolo[2,3-b]pyridin-2-yl)methyl)-N,N-dimethyl-1′,2′,3′,6′-tetrahydro-[2,4′-bipyridine]-5-carboxamide] | – |
| 0.638 µM | [2H]C([2H])([2H])N(C(=O)c1ccc(C2=CCN([C@@H](C)c3cc4c(-c5cnc(N)c(C)c5)ccnc4n3C)CC2)cc1)C([2H])([2H])[2H] [Example 1af58, (S)-4-(1-(1-(4-(6-Amino-5-methylpyridin-3-yl)-1-methyl-1H-pyrrolo[2,3-b]pyridin-2-yl)ethyl)-1,2,3,6-tetrahydropyridin-4-yl)-N,N-bis(methyl-d3)benzamide] | – |

The remaining lines, values behind:

| Structure (SMILES) | EC50 [1] | other results |
| --- | --- | --- |
| CNc1ccc(-c2ccnc3c2cc(CN2CC[C@@H](c4ccc(C(=O)N(C)C)cc4)[C@H](F)C2)n3C)nc1 (stereo in doubt) [Example 1o17, 4-((3S,4S)-3-fluoro-1-((1-methyl-4-(5-(methylamino)pyridin-2-yl)-1H-pyrrolo[2,3-b]pyridin-2-yl)methyl)piperidin-4-yl)-N,N-dimethylbenzamide] | – | Emax [1]: < 20% |
| [2H]C([2H])([2H])N(C(=O)c1ccc(C2=CCN(Cc3cc4c(-c5ccc(N)nc5)ccnc4n3C)CC2)nn1)C([2H])([2H])[2H] [Example 1z4, 6-(1-((4-(6-aminopyridin-3-yl)-1-methyl-1H-pyrrolo[2,3-b]pyridin-2-yl)methyl)-1,2,3,6-tetrahydropyridin-4-yl)-N,N-bis(methyl-d3)pyridazine-3-carboxamide] | – | Emax [1]: 20 to 30% |
| [2H]C([2H])([2H])N(C(=O)c1ccc(C2CCN([C@@H](C)c3cc4c(-c5cnc(N)nn5)ccnc4n3C)CC2)cc1)C([2H])([2H])[2H] [Example 1af64, (S)-4-(1-(1-(4-(3-amino-1,2,4-triazin-6-yl)-1-methyl-1H-pyrrolo[2,3-b]pyridin-2-yl)ethyl)piperidin-4-yl)-N,N-bis(methyl-d3)benzamide] | 3.19 µM | – |
| CNc1ccc(-c2ccnc3c2cc(CN2CC[C@H](c4ccc(C(=O)N(C)C)cc4)C[C@H]2C)n3C)nc1 (single isomer, unassigned) [Example 1o29] | – | Emax [1]: < 20% |
| [2H]C([2H])([2H])N(C(=O)c1ccc(C2CCN([C@@H](C)c3cc4c(-c5ccc(NCCOC)nc5)ccnc4n3C)CC2)cc1)C([2H])([2H])[2H] [Example 1af50, (S)-4-(1-(1-(4-(6-((2-methoxyethyl)amino)pyridin-3-yl)-1-methyl-1H-pyrrolo[2,3-b]pyridin-2-yl)ethyl)piperidin-4-yl)-N,N-bis(methyl-d3)benzamide] | 0.466 µM | – |
| CN(C)C(=O)c1ccc(C2=CCN(Cc3cc4c(-c5ccc(N)nc5)ccnc4n3C)CC2)c(OC(F)(F)F)c1 [Example 1z45, 4-(1-((4-(6-aminopyridin-3-yl)-1-methyl-1H-pyrrolo[2,3-b]pyridin-2-yl)methyl)-1,2,3,6-tetrahydropyridin-4-yl)-N,N-dimethyl-3-(trifluoromethoxy)benzamide] | 0.798 µM | – |
| [2H]C([2H])([2H])N(C(=O)c1ccc(C2CCN([C@@H](C)c3cc4c(-c5cnc(N)cc5C#N)ccnc4n3C)CC2)cc1)C([2H])([2H])[2H] [Example 1af70, (S)-4-(1-(1-(4-(6-amino-4-cyanopyridin-3-yl)-1-methyl-1H-pyrrolo[2,3-b]pyridin-2-yl)ethyl)piperidin-4-yl)-N,N-bis(methyl-d3)benzamide] | – | Emax [1]: 30 to 40% |
| CNc1ccc(-c2ccnc3c2cc(CN2CC[C@@H](c4ccc(C(=O)N(C)C)cc4)C[C@@H]2C)n3C)nc1 (single isomer, unassigned) [Example 1o28] | – | Emax [1]: < 20% |
| CN(C)C(=O)c1ccc(C2=CCN(Cc3cc4c(-c5ccc(N)nc5)ccnc4n3C)CC2)c(C2CC2)c1 [Example 1z23, 4-(1-((4-(6-aminopyridin-3-yl)-1-methyl-1H-pyrrolo[2,3-b]pyridin-2-yl)methyl)-1,2,3,6-tetrahydropyridin-4-yl)-3-cyclopropyl-N,N-dimethylbenzamide] | 0.853 µM | – |
| CNC(=O)c1ccc(-c2ccnc3c2cc(CN2CCC(c4ccc(C(=O)N(C)C)cc4)CC2)n3C)cc1 [Example 1j7, 4-[2-[[4-[4-(Dimethylcarbamoyl)phenyl]-1-piperidyl]methyl]-1-methyl-pyrrolo[2,3-b]pyridin-4-yl]-N-methyl-benzamide] | – | Kd [2]: 3.45 µM |
